Consider 3 molecules from patent US20060052369A1, “Compositions and methods relating to novel compounds and targets thereof” (The Regents of the University of Michigan, priority 2004, published 2006).

Read-outs that look alike come from different tables or passages of the source.

Data set [1] has as its target T1, ATPase of sub-mitochondrial particles (mitochondrial F1Fo-ATPase) (Bos taurus, UniProt P13621).
T1 construct: from tissue; host or cells: sub-mitochondrial particles (SMPs)
The data set is described as follows: NADH-coupled ATP hydrolysis kinetics assay with sub-mitochondrial particles. Format: biochemical, bovine. To be noted: for mechanism of inhibition: ATP hydrolysis. As for the experimental part: The mechanism of inhibition for ATP hydrolysis induced by Bz-423 and derivatives of Bz-423 was assayed using an NADH-coupled assay. The ATP hydrolytic activity of the sub-mitochondrial particles (hereinafter SMPs) was measured by coupling the production of ADP to the oxidation of NADH via the pyruvate kinase and lactate dehydrogenase reaction. Briefly, ATP hydrolysis SMPs (0.8 mg; 7.14 μg/well) were added to hydrolysis buffer (100 mM Tris-HCl, pH 8.0 at 25° C., 4 mM MgCl2, […], 0.2 mM EDTA) and vortexed. 125 μL of this suspension was added to each well of a 96-well plate containing 50× drug or DMSO vehicle control (1% DMSO, final). The 96-well plate was then placed at 30° C. in a Molecular Devices Versamax tunable microplate reader and allowed to incubate for 5 min. During this 5 min, a substrate-coupling mixture was prepared (containing X mM ATP, 0.2 mM NADH, 1 mM phosphoenolpyruvate (PEP), 2 U/mL pyruvate kinase (PK), and 2 U/mL lactate dehydrogenase (LDH) in hydrolysis buffer). The rate of hydrolysis was assayed over a range of ATP concentrations (0.1-4.0 mM) at each [Bz]. 125 μL of the substrate-coupling mixture was added to each well, and the rate of NADH oxidation was monitored for 10 min at 340 nm, 30° C. The measured decrease in absorbance over time (in OD/min) was converted to μmol ATP hydrolyzed/min/mg SMP (ε=6220). The velocity data was plotted versus [ATP] for each concentration of [Bz] […] To obtain Ki values and confirm that an uncompetitive model of inhibition was the best fit for the data, three-dimensional fits of the velocity, [ATP], and [Bz] were performed to solve for Vmax, Km, Ki, and Ki* [where Ki indicates Bz binding to the ATPase with the third catalytic site empty (mixed-type inhibition only), and Ki* indicates binding when all three sites have substrate bound (uncompetitive and mixed-type inhibition)]. The following equations were used: Competitive Inhibition: Vo=Vmax[S]/((1+[I]/Ki)Km+[S]) Uncompetitive Inhibition: Vo=Vmax[S]/((1+[I]/Ki*)[S]+Km) Mixed or Noncompetitive Inhibition: Vo=Vmax[S]/((1+[I]/Ki)Km+(1+[I]Ki*)[S])
The results for the o-tert-Butyl derivative of Bz-423 are shown in Table 1 and confirm that this derivative binds the ATPase with an uncompetitive binding mechanism, similar to Bz-423.

The next data set concerns rodents. To be noted: two daily doses; cited from earlier work.
A further data set concerns the target F1Fo-ATPase (Homo sapiens, UniProt P05496). To be noted: cited from earlier work.
[2] abbreviates: Ki*, Uncompetitive Inhibition model fit, binding when all three sites have substrate bound.
The mark [3] stands for this setting: Ki, Competitive Inhibition model fit.

Regarding `CN1C(=O)C(Cc2ccc3ccccc3c2)N=C(c2ccc(O)cc2)c2cc(Cl)ccc21` (centres unmarked) [Bz-423], the mechanism of inhibition result in data set [1] was “uncompetitive”. In addition, the Ki was found to be 19 ± 5.8 µM in data set [1] (setting [2]) and 13.32 ± 0.1 µM in data set [1] (setting [3]).
For `CN1C(=O)C(Cc2ccc(OC(C)(C)C)cc2)N=C(c2ccc(O)cc2)c2cc(Cl)ccc21` (centres unmarked) [o-tert-Butyl], the mechanism of inhibition result in data set [1] is listed as “uncompetitive”. Moreover, the Ki stood at 12.7 ± 1.1 µM in data set [1] (setting [2]); 9.35 ± 2.4 µM in data set [1] (setting [3]); 12.7 ± 1.1 µM in data set [1] (Non-competitive Inhibition model fit, binding when all three sites have substrate bound, read-out: Ki*). For the same molecule, the “effect on Km” value in data set [1] (secondary plots of [Bz] versus Km) is reported as “decreased”. Also, the “effect on Vmax” value in data set [1] (secondary plots of [Bz] versus Vmax) is “decreased”.
As to `CC[C@H]1/C=C/C=C/C[C@@H](C)[C@H](O)[C@@](C)(O)C(=O)[C@@H](C)[C@H](O)[C@@H](C)C(=O)[C@@H](C)[C@H](O)[C@@H](C)/C=C/C(=O)O[C@@H]2[C@H](C)[C@H](CC1)O[C@]1(CC[C@H](C)[C@H](C[C@@H](C)O)O1)[C@H]2C` [oligomycin], the LD50 with rodents is on record as 0.5 mg/kg. Also, the IC50 at F1Fo-ATPase is 10 nM.
